Measured values reported in patent publication US12441717B2, “Crystal form of polycyclic anaplastic lymphoma kinase inhibitor” (SHANDONG XUANZHU PHARMA CO., LTD., priority 2020, dated 2025).
Where “and” joins values, the source holds several entries; their conditions need not be identical. Equal values may be shown once.

How the values were obtained:
Type in all cases: physicochemical
[1] = Moisture absorbability test (Chinese Pharmacopoeia 2015, General Principle 9103); details: for Moisture absorbability results: wrapped cells end with 'absorbability'
Text: A Test sample was taken and determined according to Chinese Pharmacopoeia, 2015 edition, vol. four, General Principle 9103, Guiding Principles for Drug Moisture Absorbability Test.

[2] = Fluidity after universal pulverization (angle of repose, Carr's index, electrostatic phenomenon); details: for Angle of repose / Carr's index % / ρbulk / ρtapped: after universal pulverization
Description: The amorphous form and crystal forms A and B of the compound of formula (1) were treated by universal pulverization.
The fluidity of the crystal form could be characterized by the angle of repose and the Carr's index. It was generally believed that the smaller the angle of repose and the Carr's index, the better the fluidity.

[3] = Solubility in buffered salt solutions of different pH (HPLC external standard); details: for solubility at 24 h: buffered salt solution, 25 °C, thermodynamic from solid
Text: The solubility (mg/mL) of crystal forms A and B and the amorphous form of the compound of formula (1) under different pH conditions were as shown in Table 1.

[4] = Stability study (high temperature, high humidity, light): properties, related substances, moisture, XRD; details: for Stability under high temperature, high humidity and light conditions (conclusion): overall conclusion of the stability study
Description: 2.1 Study Conditions for Crystal Form B of the Compound of Formula (1): • Placed at 105° C. for 5 days, left open, and sampled and tested on days 1 and 5; • placed at 60° C. for 10 days, left open, and sampled and tested on days 5 and 10; • placed under 25° C. RH 92.5% conditions for 10 days, left open, and sampled and tested on days 5 and 10; • under light conditions, using open and closed conditions (polyethylene bag+composite film bag), and sampling and testing when illumination requirements were met; and • placed under 40° C. RH 75% conditions for 1 month, left open, and sampled and tested on day 10 and after 1 month.
2.2 Study Conditions for Crystal Form a of the Compound of Formula (1): • Placed at 105° C. for 5 days, left open, and sampled and tested on days 1 and 5; • placed at 60° C. for 10 days, left open, and sampled and tested on days 5 and 10; • placed under 25° C. RH 92.5% conditions for 10 days, left open, and sampled and tested on days 5 and 10; • under light conditions, left open, and sampled and tested when illumination requirements were met; and • placed under 40° C. RH 75% conditions for 10 days, left open, and sampled and tested on days 5 and 10.
2.3 Study Conditions for the Amorphous Form of the Compound of Formula (1): • Placed at 60° C. for 10 days, left open, and sampled and tested on day 10; placed under 25° C. RH 92.5% conditions for 10 days, left open, and sampled and tested on day 10; and • under light conditions, using open and closed conditions (polyethylene bag+composite film bag), and sampling and testing when illumination requirements were met.
Illumination requirements: ICH Q1B Stability Test: Photostability Testing of New Drug Substances and formulation.
Determination of related substances: Determination by high performance liquid chromatography in accordance with “Chinese Pharmacopoeia”, 2015 edition, Vol. four, General Principle 0512.
Moisture determination: Determination according to “Chinese Pharmacopoeia”, 2015 edition, vol. four, General Principle 0832, Moisture Determination Method, First Method (Fischer's method), 2 Coulometric Titration Method.
XRD determination: Determination according to “Chinese Pharmacopoeia”, 2015 edition, vol. four, General Principle 0451 X-ray Diffraction Method—Second Method, Powder X-ray Diffraction Method.

[5] = buffered salt solution pH 1.0, shaken at 25° C. for 24 h
[6] = buffered salt solution pH 4.5, shaken at 25° C. for 24 h
[7] = buffered salt solution pH 6.8, shaken at 25° C. for 24 h
[8] = buffered salt solution pH 7.4, shaken at 25° C. for 24 h
[9] = Day 0, coulometric Fischer titration
[10] = Day 0, related substances by HPLC
[11] = Day 10, at 25° C. RH 92.5%, open
[12] = Light - closed (polyethylene bag+composite film bag), ICH Q1B illumination
[13] = Light - closed, ICH Q1B illumination
[14] = Light - open, ICH Q1B illumination
[15] = Light - open, pattern compared with day 0
[16] = Day 5, at 25° C. RH 92.5%, open

Cc1cc(Nc2ncc(Cl)c(Nc3ccccc3S(=O)(=O)C(C)C)n2)c2c(c1C1CCNCC1)OCCO2 [Amorphous form, 5-chloro-N^4-(2-(isopropylsulfonyl)phenyl)-N^2-(7-methyl-8-(piperidin-4-yl)-2,3-dihydrobenzo[b][1,4]dioxin-5-yl)pyrimidine-2,4-diamine]
Hygroscopic weight gain (%) [1]: 2.8% | Moisture absorbability results [1]: Having moisture | Electrostatic phenomenon after pulverization [2]: serious electrostatic phenomenon | Angle of repose [2]: 50.6 ° | Solubility [3, 5]: 11200 µg/mL | Solubility [3, 6]: 17 µg/mL | Solubility [3, 7]: 10 µg/mL | Solubility [3, 8]: 8.7 µg/mL | Properties ([4]; Day 0): Off-white powder | Moisture % [4, 9]: 0.92% | Overall related % [4, 10]: 0.84% | Moisture % [4, 11]: 6.9% | Overall related % [4, 11]: 0.90% | Properties [4, 11]: Off-white powder | XRD ([4]; Day 10, at 25° C. RH 92.5%, open, pattern compared with day 0 (wrapped cell reads 'same as day 0')): Same as day 0 | Moisture % ([4]; Day 10, at 60° C., open): 0.69% | Overall related % ([4]; Day 10, at 60° C., open): 1.78% | Properties ([4]; Day 10, at 60° C., open): Light yellow powder | XRD ([4]; Day 10, at 60° C., open, pattern compared with day 0 (wrapped cell reads 'same as day 0')): Same as day 0 | Properties [4, 12]: Off-white powder | Moisture % [4, 13]: 0.62% | Overall related % [4, 13]: 0.88% | XRD ([4]; Light - closed, pattern compared with day 0 (wrapped cell reads 'same as day 0')): Same as day 0 | Moisture % [4, 14]: 2.3% | Overall related % [4, 14]: 10.19% | Properties [4, 14]: Light yellow powder | XRD [4, 15]: Same as day 0 | Stability under high temperature, high humidity and light conditions (conclusion) [4]: unstable

Cc1cc(Nc2ncc(Cl)c(Nc3ccccc3S(=O)(=O)C(C)C)n2)c2c(c1C1CCNCC1)OCCO2 [Crystal form A, 5-chloro-N^4-(2-(isopropylsulfonyl)phenyl)-N^2-(7-methyl-8-(piperidin-4-yl)-2,3-dihydrobenzo[b][1,4]dioxin-5-yl)pyrimidine-2,4-diamine]
Hygroscopic weight gain (%) [1]: 0.08% | Moisture absorbability results [1]: no or almost no moisture absorbability | Electrostatic phenomenon after pulverization [2]: no obvious electrostatic phenomenon | Angle of repose [2]: 53 ° | Carr's index % [2]: 45% | ρbulk [2]: 0.35 g/mL | ρtapped [2]: 0.63 g/mL | Solubility [3, 6]: 2 µg/mL | Solubility [3, 7]: Not detected | Solubility [3, 8]: Not detected | solubility at 24 h ([3]; pH 1, simulated gastric fluid, buffered salt solution pH 1.0, shaken at 25° C. for 24 h): 16900 µg/mL | Properties ([4]; Day 0): Off-white powder | Moisture % [4, 9]: 0.25% | Overall related % [4, 10]: 0.64% | Moisture % ([4]; Day 1, at 105° C., open): 0.18% | Overall related % ([4]; Day 1, at 105° C., open): 0.78% | Properties ([4]; Day 1, at 105° C., open): Off-white powder | Moisture % [4, 16]: 0.23% | Overall related % [4, 16]: 0.69% | Properties [4, 16]: Off-white powder | Moisture % ([4]; Day 5, at 40° C. RH 75%, open): 0.23% | Overall related % ([4]; Day 5, at 40° C. RH 75%, open): 0.79% | Properties ([4]; Day 5, at 40° C. RH 75%, open): Off-white powder | Moisture % ([4]; Day 5, at 60° C., open): 0.17% | Overall related % ([4]; Day 5, at 60° C., open): 0.81% | Properties ([4]; Day 5, at 60° C., open): Off-white powder | Moisture % ([4]; Day 5, at 105° C., open): 0.17% | Overall related % ([4]; Day 5, at 105° C., open): 1.6% | Properties ([4]; Day 5, at 105° C., open): Off-white powder | Moisture % [4, 11]: 0.17% | Overall related % [4, 11]: 0.78% | Properties [4, 11]: Off-white powder | Moisture % ([4]; Day 10, at 40° C. RH 75%, open): 0.15% | Overall related % ([4]; Day 10, at 40° C. RH 75%, open): 0.89% | Properties ([4]; Day 10, at 40° C. RH 75%, open): Off-white powder | Moisture % ([4]; Day 10, at 60° C., open): 0.11% | Overall related % ([4]; Day 10, at 60° C., open): 1.0% | Properties ([4]; Day 10, at 60° C., open): Off-white powder | Moisture % [4, 14]: 0.23% | Overall related % [4, 14]: 1.9% | Properties [4, 14]: Light yellow powder | XRD [4, 15]: Same as day 0 | Stability under high temperature, high humidity and light conditions (conclusion) [4]: relatively stable

Cc1cc(Nc2ncc(Cl)c(Nc3ccccc3S(=O)(=O)C(C)C)n2)c2c(c1C1CCNCC1)OCCO2 [Crystal form B, 5-chloro-N^4-(2-(isopropylsulfonyl)phenyl)-N^2-(7-methyl-8-(piperidin-4-yl)-2,3-dihydrobenzo[b][1,4]dioxin-5-yl)pyrimidine-2,4-diamine]
Hygroscopic weight gain (%) [1]: 0.11% | Moisture absorbability results [1]: no or almost no moisture absorbability | Electrostatic phenomenon after pulverization [2]: no electrostatic phenomenon | Angle of repose [2]: 45.8 ° | Carr's index % [2]: 30% | ρbulk [2]: 0.477 g/mL | ρtapped [2]: 0.683 g/mL | Solubility [3, 5]: 19800 µg/mL | Solubility [3, 6]: 22 µg/mL | solubility at 24 h ([3]; pH 6.8, aqueous buffer, buffered salt solution pH 6.8, shaken at 25° C. for 24 h): 13 µg/mL | solubility at 24 h ([3]; pH 7.4, aqueous buffer, buffered salt solution pH 7.4, shaken at 25° C. for 24 h): 10 µg/mL | Moisture % ([4]; 1 M, at 40° C. RH 75%, open): 0.39% | Overall related % ([4]; 1 M, at 40° C. RH 75%, open): 0.11% | Properties ([4]; 1 M, at 40° C. RH 75%, open): Off-white crystalline | Moisture % [4, 9]: 0.38% and 0.27% | Overall related % [4, 10]: 0.09% and 0.10% | Moisture % ([4]; Day 1, at 105° C., open): 0.34% | Overall related % ([4]; Day 1, at 105° C., open): 0.10% | Properties ([4]; Day 1, at 105° C., open): Off-white crystalline | Moisture % [4, 16]: 0.37% | Overall related % [4, 16]: 0.07% | Properties [4, 16]: Off-white crystalline | Moisture % ([4]; Day 5, at 60° C., open): 0.26% | Overall related % ([4]; Day 5, at 60° C., open): 0.08% | Properties ([4]; Day 5, at 60° C., open): Off-white crystalline | Moisture % ([4]; Day 5, at 105° C., open): 0.37% | Overall related % ([4]; Day 5, at 105° C., open): 0.08% | Properties ([4]; Day 5, at 105° C., open): Off-white crystalline | Moisture % [4, 11]: 0.43% | Overall related % [4, 11]: 0.10% | Properties [4, 11]: Off-white crystalline | Moisture % ([4]; Day 10, at 40° C. RH 75%, open): 0.42% | Overall related % ([4]; Day 10, at 40° C. RH 75%, open): 0.09% | Properties ([4]; Day 10, at 40° C. RH 75%, open): Off-white crystalline | Moisture % ([4]; Day 10, at 60° C., open): 0.45% | Overall related % ([4]; Day 10, at 60° C., open): 0.10% | Properties ([4]; Day 10, at 60° C., open): Off-white crystalline | Properties [4, 12]: Off-white crystalline | Moisture % [4, 13]: 0.41% | Overall related % [4, 13]: 0.10% | Moisture % [4, 14]: 0.21% | Overall related % [4, 14]: 0.54% | Properties [4, 14]: Yellow powder | XRD [4, 15]: Same as day 0 | Stability under high temperature, high humidity and light conditions (conclusion) [4]: relatively stable
